We go through 16 molecules from ChEMBL document CHEMBL5442219.

Conditions in all cases: Compound concentration 10 µM
The target in test [1] is 5-hydroxytryptamine receptor 1D (Homo sapiens) (UniProt P28221).
Description: PDSP Primary Binding target: HTR1D - Compounds are tested at 10 uM concentration, plate are incubated at room temperature in the dark for 90 minutes. Reaction are stopped by vacuum filtration onto 0.3% polyethyleneimine soaked filter mats using Filtermate harvester. Scintilation cocktail is then melted onto microwave-dried filters on a hot plate and the radio activity is counted in Microbia counter.
The target in test [2] is T1, 5-hydroxytryptamine receptor 2C (Homo sapiens) (UniProt P28335).
T1 sequence (whole entry): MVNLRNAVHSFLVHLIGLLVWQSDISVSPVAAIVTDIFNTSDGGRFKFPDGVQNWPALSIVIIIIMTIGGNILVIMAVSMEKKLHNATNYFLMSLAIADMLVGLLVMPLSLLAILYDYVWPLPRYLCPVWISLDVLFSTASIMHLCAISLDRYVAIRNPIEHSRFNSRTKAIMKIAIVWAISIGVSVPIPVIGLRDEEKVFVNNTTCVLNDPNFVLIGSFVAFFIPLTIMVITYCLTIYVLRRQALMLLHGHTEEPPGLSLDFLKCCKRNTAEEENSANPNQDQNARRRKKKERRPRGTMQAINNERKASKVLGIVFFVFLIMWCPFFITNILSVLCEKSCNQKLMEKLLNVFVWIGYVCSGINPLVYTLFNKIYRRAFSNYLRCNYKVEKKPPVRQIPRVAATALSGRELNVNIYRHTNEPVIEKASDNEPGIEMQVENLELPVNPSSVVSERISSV
Description: PDSP Primary Binding target: HTR2C - Compounds are tested at 10 uM concentration, plate are incubated at room temperature in the dark for 90 minutes. Reaction are stopped by vacuum filtration onto 0.3% polyethyleneimine soaked filter mats using Filtermate harvester. Scintilation cocktail is then melted onto microwave-dried filters on a hot plate and the radio activity is counted in Microbia counter.

Test [3] has as its target Histamine H2 receptor (Homo sapiens) (UniProt P25021).
Description: PDSP Primary Binding target: HRH2 - Compounds are tested at 10 uM concentration, plate are incubated at room temperature in the dark for 90 minutes. Reaction are stopped by vacuum filtration onto 0.3% polyethyleneimine soaked filter mats using Filtermate harvester. Scintilation cocktail is then melted onto microwave-dried filters on a hot plate and the radio activity is counted in Microbia counter.
Test [4] deals with T2, Alpha-2A adrenergic receptor (Homo sapiens) (UniProt P08913).
T2 sequence (whole entry): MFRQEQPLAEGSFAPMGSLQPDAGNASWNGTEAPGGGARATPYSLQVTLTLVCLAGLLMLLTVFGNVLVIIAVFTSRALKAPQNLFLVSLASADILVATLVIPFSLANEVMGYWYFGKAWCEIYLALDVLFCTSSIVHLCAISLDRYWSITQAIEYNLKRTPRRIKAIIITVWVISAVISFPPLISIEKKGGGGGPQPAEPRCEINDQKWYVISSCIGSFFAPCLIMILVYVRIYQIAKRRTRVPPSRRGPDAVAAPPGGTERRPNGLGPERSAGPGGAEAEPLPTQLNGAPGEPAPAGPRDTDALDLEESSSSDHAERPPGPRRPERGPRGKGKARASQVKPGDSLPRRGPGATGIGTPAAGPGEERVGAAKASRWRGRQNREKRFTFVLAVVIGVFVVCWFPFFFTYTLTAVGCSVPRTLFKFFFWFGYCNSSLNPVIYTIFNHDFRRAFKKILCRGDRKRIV
Description: PDSP Primary Binding target: ADRA2A - Compounds are tested at 10 uM concentration, plate are incubated at room temperature in the dark for 90 minutes. Reaction are stopped by vacuum filtration onto 0.3% polyethyleneimine soaked filter mats using Filtermate harvester. Scintilation cocktail is then melted onto microwave-dried filters on a hot plate and the radio activity is counted in Microbia counter.

For test [5], the target named is T3, Alpha-1B adrenergic receptor (Homo sapiens) (UniProt P35368).
T3 sequence (whole entry): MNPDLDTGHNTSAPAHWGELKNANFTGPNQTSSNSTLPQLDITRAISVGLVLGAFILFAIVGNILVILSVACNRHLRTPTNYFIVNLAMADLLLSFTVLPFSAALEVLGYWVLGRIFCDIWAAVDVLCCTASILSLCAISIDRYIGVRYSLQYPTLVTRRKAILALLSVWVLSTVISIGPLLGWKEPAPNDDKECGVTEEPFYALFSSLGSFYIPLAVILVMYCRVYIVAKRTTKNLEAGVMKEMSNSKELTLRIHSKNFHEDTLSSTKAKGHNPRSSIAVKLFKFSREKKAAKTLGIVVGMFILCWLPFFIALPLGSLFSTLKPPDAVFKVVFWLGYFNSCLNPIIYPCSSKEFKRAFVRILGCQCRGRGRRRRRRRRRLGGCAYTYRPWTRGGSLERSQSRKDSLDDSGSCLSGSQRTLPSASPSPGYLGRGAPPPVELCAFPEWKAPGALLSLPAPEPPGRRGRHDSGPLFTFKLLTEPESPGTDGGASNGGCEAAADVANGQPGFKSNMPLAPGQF
Description: PDSP Primary Binding target: ADRA1B - Compounds are tested at 10 uM concentration, plate are incubated at room temperature in the dark for 90 minutes. Reaction are stopped by vacuum filtration onto 0.3% polyethyleneimine soaked filter mats using Filtermate harvester. Scintilation cocktail is then melted onto microwave-dried filters on a hot plate and the radio activity is counted in Microbia counter.

Test [6] addresses T4, Muscarinic acetylcholine receptor M1 (Homo sapiens) (UniProt P11229).
T4 sequence (whole entry): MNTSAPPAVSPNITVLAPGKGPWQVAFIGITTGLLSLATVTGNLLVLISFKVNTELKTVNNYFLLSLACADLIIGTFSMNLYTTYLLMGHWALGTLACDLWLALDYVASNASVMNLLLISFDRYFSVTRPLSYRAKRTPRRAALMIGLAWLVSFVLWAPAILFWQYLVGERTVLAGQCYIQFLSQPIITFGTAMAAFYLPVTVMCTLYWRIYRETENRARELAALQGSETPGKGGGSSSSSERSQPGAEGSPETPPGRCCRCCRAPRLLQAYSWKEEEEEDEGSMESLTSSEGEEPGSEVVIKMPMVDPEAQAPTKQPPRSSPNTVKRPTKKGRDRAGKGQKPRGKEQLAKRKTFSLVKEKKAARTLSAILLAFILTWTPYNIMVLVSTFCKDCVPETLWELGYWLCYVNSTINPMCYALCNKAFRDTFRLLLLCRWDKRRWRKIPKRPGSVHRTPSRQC
Description: PDSP Primary Binding target: CHRM1 - Compounds are tested at 10 uM concentration, plate are incubated at room temperature in the dark for 90 minutes. Reaction are stopped by vacuum filtration onto 0.3% polyethyleneimine soaked filter mats using Filtermate harvester. Scintilation cocktail is then melted onto microwave-dried filters on a hot plate and the radio activity is counted in Microbia counter.

Test [7] has as its target T5, Muscarinic acetylcholine receptor M5 (Homo sapiens) (UniProt P08912).
T5 sequence (whole entry): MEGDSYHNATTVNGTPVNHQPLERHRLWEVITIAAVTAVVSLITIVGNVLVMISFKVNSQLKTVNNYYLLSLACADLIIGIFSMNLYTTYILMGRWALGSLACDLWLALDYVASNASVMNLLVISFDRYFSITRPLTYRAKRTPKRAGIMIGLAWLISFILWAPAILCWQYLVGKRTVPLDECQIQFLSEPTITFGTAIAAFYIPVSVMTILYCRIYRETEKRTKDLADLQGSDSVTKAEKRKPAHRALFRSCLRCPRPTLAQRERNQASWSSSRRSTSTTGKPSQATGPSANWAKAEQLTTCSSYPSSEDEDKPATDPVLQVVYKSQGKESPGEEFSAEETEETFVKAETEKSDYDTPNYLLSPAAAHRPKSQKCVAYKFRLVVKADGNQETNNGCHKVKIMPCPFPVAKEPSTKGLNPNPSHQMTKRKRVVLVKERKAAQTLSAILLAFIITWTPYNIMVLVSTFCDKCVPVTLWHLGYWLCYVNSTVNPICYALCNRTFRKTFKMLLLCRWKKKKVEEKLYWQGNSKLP
Description: PDSP Primary Binding target: CHRM5 - Compounds are tested at 10 uM concentration, plate are incubated at room temperature in the dark for 90 minutes. Reaction are stopped by vacuum filtration onto 0.3% polyethyleneimine soaked filter mats using Filtermate harvester. Scintilation cocktail is then melted onto microwave-dried filters on a hot plate and the radio activity is counted in Microbia counter.

In test [8] the target is Mu-type opioid receptor (Homo sapiens) (UniProt P35372).
Sequence of Mu-type opioid receptor (Homo sapiens) (P35372 whole entry): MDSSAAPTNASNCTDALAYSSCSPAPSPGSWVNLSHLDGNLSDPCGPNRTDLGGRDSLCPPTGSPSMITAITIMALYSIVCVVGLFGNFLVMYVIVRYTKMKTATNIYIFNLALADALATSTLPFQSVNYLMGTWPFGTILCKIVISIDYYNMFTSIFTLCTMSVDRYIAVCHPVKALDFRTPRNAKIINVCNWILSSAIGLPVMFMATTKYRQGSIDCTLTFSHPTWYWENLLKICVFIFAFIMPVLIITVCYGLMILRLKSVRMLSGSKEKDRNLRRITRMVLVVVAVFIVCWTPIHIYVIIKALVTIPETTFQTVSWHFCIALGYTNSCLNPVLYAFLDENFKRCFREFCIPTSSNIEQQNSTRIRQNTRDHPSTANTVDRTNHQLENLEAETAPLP
Description: PDSP Primary Binding target: OPRM1 - Compounds are tested at 10 uM concentration, plate are incubated at room temperature in the dark for 90 minutes. Reaction are stopped by vacuum filtration onto 0.3% polyethyleneimine soaked filter mats using Filtermate harvester. Scintilation cocktail is then melted onto microwave-dried filters on a hot plate and the radio activity is counted in Microbia counter.
The target of test [9] is Beta-3 adrenergic receptor (Homo sapiens) (UniProt P13945).
Sequence of Beta-3 adrenergic receptor (Homo sapiens) (P13945 whole entry, looked up): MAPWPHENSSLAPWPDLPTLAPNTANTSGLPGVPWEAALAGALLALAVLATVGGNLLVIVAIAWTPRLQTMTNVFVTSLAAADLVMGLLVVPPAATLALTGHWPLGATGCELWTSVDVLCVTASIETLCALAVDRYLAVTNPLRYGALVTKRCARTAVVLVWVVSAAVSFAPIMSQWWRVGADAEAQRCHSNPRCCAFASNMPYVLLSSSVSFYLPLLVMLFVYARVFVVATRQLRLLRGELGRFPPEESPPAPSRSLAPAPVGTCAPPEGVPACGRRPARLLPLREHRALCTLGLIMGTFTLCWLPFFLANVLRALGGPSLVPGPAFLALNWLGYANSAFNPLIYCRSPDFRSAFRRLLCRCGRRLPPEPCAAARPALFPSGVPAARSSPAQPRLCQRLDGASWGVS
Description: PDSP Primary Binding target: ADRB3 - Compounds are tested at 10 uM concentration, plate are incubated at room temperature in the dark for 90 minutes. Reaction are stopped by vacuum filtration onto 0.3% polyethyleneimine soaked filter mats using Filtermate harvester. Scintilation cocktail is then melted onto microwave-dried filters on a hot plate and the radio activity is counted in Microbia counter.

Sequence of 5-hydroxytryptamine receptor 1D (Homo sapiens) (P28221 whole entry): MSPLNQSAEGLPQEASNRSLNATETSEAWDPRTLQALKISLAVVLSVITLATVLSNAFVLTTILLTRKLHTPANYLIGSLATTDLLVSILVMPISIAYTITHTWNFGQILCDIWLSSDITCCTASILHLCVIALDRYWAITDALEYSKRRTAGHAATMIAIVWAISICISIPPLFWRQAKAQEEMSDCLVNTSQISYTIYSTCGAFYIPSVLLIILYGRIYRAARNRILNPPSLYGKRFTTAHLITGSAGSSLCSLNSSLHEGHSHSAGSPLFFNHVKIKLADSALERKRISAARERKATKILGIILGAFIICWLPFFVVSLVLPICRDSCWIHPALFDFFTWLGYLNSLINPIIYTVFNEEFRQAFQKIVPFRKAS
Sequence of Histamine H2 receptor (Homo sapiens) (P25021 whole entry): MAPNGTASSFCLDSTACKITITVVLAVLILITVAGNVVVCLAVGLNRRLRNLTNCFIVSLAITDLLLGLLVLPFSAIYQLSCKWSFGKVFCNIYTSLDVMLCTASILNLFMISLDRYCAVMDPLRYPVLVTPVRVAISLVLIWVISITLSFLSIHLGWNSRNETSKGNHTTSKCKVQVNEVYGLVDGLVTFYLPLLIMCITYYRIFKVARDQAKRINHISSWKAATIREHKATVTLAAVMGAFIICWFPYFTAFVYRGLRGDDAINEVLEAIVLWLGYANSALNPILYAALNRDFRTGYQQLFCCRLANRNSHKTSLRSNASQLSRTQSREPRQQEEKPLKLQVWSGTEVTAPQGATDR

With `CN1CCCC(n2nc(Cc3ccc(Cl)cc3)c3ccccc3c2=O)CC1` (centres undefined), the inhibition (usually the drop in the measured response relative to a control, in per cent) is 57.9% in test [1]; 93.7% in test [2]; 22.8% in test [3]; 62.3% in test [4]; 72.7% in test [5]; 82.9% in test [6]. For the same molecule, the inhibition in test [7] was 43.1%; in [8] it was 29.4%; in test [9] it was 61.5%.
For `O=C(O)C1CN(Cc2ccc(OCc3ccc(Cl)c(Cl)c3)cc2)C1`, the inhibition was 29.6% in [3]; 29.7% in [4]; 2.35% in [6]; -2.07% in [7]; 1.29% in test [8]; -2.67% in [9].
As to `O=C(O)CC1CCC2(CC1)CCN(c1cc(OC(F)(F)F)ccc1Cl)CC2`, the inhibition in [2] was 13.1%; in test [3], -4.3%; in [5] it was 0.25%; in [6], -1.08%; in [7] it was -6.92%; in test [8], 34.3%. Moreover, the inhibition in test [9] is 17.5%.
On to `N#Cc1c[nH]c2c(C(=O)N3CCN(CCc4ccc(F)cc4)CC3)cccc12`, for which the inhibition in [1] was 61.7%; in [2], 58.7%; in [3] it was 4.27%; in [4], -0.21%; in test [5], 36.8%; in [6], -2.04%. Further, the values for the inhibition in test [7] and in [9] were -9.78% and 22.4%, respectively.
In the case of `C[C@]1(C(=O)N(CCCC(=O)O)Cc2cccc(Cl)c2)CCN1C(=O)c1csc2ccccc12`, the inhibition is 19.3% in test [3]; 10.9% in test [4]; -9.59% in test [5]; 5.11% in [6]; -2.06% in [7]; -0.98% in test [9].
For the molecule `CO[C@@H]1COCC[C@@H]1N[C@@H]1CC[C@@](C(=O)N2CCc3ncc(C(F)(F)F)cc3C2)(C(C)C)C1`, the inhibition is 14.9% in test [3]; 2.58% in test [5]; -6.06% in test [6]; -4.29% in test [7]; 11.2% in test [8]; 47.5% in [9].
For `O=C1O[C@]2(CC[C@H](C(=O)Nc3ccn(-c4ccccc4F)n3)CC2)c2cnccc21`, the inhibition in [2] is 18.3%; in test [3], 2.76%; in test [4] it was -9.69%; in [5], 3.66%; in test [6], -6%; in [7] it was -6.98%. In addition, the results for the inhibition in [8] and in test [9] were 4.44% and 3.84%, respectively.
In the case of `Cc1ccc2c(c1)c1c(n2CCc2ccc(C)nc2)CCN(C)C1`, the inhibition in [1] was 70.8%; in test [2] it was 81.4%; in test [3], 96.5%; in test [4], 69.7%; in [5], 85%; in test [7] it was -2.89%. Moreover, the inhibition in test [8] is 2.42%; in test [9] it was 0.23%.
As to `N#Cc1ccc(NC(=O)Nc2ccccc2Br)c2nn[nH]c12`, the inhibition in test [1] was 1.14%; in test [2] it was 26.9%; in [3], 17.7%; in test [5], 13.2%; in test [7], 6.48%; in test [8], 27.1%. Besides, the inhibition in [9] was 75%.
In the case of `c1cc(CN2CCCNCCNCCCNCC2)ccc1CN1CCCNCCNCCCNCC1`, the inhibition is 1.3% in test [1]; 0.23% in test [3]; 7.87% in test [4]; 42.2% in [5]; 62.3% in test [6]; 1.58% in [7]. Besides, the inhibition is 13.8% in test [8] and 34.5% in [9].
In the case of `N[C@H](C(=O)O)c1ccc(C(=O)O)c(C(=O)O)c1`, the inhibition in [1] was 19.2%; in test [2] it was 13.4%; in test [3], -1.13%; in test [5], -0.2%; in [7] it was 14.1%; in test [8] it was 29.8%. In addition, the inhibition in test [9] was 18.2%.
As for `CC(C)Oc1ccccc1C(=O)Nc1ccccc1C(=O)Nc1cccc(S(=O)(=O)C(F)(F)F)c1`, the inhibition in test [2] is 11.3%; in test [3], 36%; in [5], -9.86%; in test [6], -6.91%; in [7], -4.83%; in test [8], -7.51%. In [9], the inhibition was 1.49%.
As for `Cc1nc(C#Cc2ccnc(Cl)c2)c(C)n1-c1ccc(OC(F)(F)F)cc1`, the inhibition in test [1] was 48.9%; in [2] it was 1.86%; in test [3], 10.4%; in [4], 23.9%; in test [6], 26.6%; in [7] it was -6.77%. Also, the inhibition in [8] was 13.4%; in test [9] it was 63%.
`FC(F)(F)c1cccc(-c2noc(-c3cc(-c4ccccc4)c(C(F)(F)F)s3)n2)c1`: the inhibition was -9.1% in test [1]; 1.03% in [2]; 16.3% in [3]; -2.79% in test [4]; 21.5% in [6]; -4.18% in [7]. In addition, the figures for the inhibition in [8] and in [9] were -7.64% and 23.6%, respectively.
In the case of `CCC[C@H](Oc1cc(C)c(-n2cc(C(F)(F)F)cn2)c(C)c1)c1ccc(C(=O)NCCC(=O)O)cc1`, the inhibition in test [2] was -0.8%; in [3], -8.24%; in [6] it was 28%; in test [7], 70.1%; in [8], 11%; in test [9], 65.4%.
Regarding `Cc1c(F)cccc1NC(=O)Nc1ccc(Cl)c(S(=O)(=O)[C@H]2CCCNC2)c1O`, the inhibition was -2.39% in [1]; -7.64% in test [2]; 18.3% in test [3]; -3.61% in [8]; 17.8% in test [9].
